Experiments:
human CYP11B2 = target: T1, human CYP11B2 (Homo sapiens, UniProt P19099); assay: V79-Human-CYP11B2 cell assay (aldosterone HTRF); type: cell-based; settings: V79-hCYP11B2 cells, 125 nM 11-deoxycorticosterone, 3 hours
T1 construct: expressed in transfected cells; host or cells: V79 cells (clone V79-hCYP11B2-CLE9)
T1 sequence (P19099 25-503): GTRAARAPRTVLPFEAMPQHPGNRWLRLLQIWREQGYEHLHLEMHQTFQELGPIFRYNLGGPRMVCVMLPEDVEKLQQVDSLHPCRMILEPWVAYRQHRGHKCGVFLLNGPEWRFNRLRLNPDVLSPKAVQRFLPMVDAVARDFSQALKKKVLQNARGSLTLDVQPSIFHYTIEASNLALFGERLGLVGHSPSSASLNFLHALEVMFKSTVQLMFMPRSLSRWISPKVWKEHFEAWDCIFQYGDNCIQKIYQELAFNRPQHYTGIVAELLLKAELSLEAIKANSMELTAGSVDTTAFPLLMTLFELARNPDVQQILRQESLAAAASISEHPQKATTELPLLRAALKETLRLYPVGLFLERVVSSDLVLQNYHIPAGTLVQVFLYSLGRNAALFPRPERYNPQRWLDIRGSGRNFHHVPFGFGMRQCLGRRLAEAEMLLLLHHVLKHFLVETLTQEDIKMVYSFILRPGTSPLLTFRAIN
Procedure: Methods for V79-Human-CYP11B2 and V79-Human-CYP11B1 Assays:
V79 cell lines stably expressing the either the human CYP11B2 or the human CYP11B1 enzyme were generated using a standard transfection protocol. V79 cells were transfected with plasmids pTriEx3-Hygro-hCyp11B2 or pTriEx3-Hygro-hCyp11B1 using Lipofectamine2000 reagent. V79 cells that stably express the human CYP11B2 or human CYP11B1 enzyme were selected for and maintained in DMEM supplemented with 10% FBS and 400 μg/mL hygromycin for ˜2 weeks. Single cell clones were generated by infinite dilution in DMEM supplemented with 10% FBS and 400 μg/mL hygromycin until single colonies were obtained. Clones V79-hCYP11B2-CLE9 and V79-hCYP11B1-8C7, were determined to produce the most aldosterone and cortisol, respectively, and were selected for inhibitor screening. […] The amount of product in the supernatant (aldosterone for CYP11B2 assay and cortisol for the CYP11B1 assay) was measured using HTRF-based assay kit (Aldosterone HTRF-CisBio#64ALDPEB, Cortisol HTRF-CisBio #631DC002-CORT). IC50's for the inhibitor were determined by plotting the amount of product formed against the concentration of inhibitor using sigmoidal dose-response curve (variable slope) fit in GraphPad.

human CYP11B1 = target: T2, human CYP11B1 (Homo sapiens, UniProt P15538); assay: V79-Human-CYP11B1 cell assay (cortisol HTRF); type: cell-based; settings: V79-hCYP11B1 cells, 250 nM 11-deoxycortisol, 3 hours
T2 construct: expressed in transfected cells; host or cells: V79MZh11B1 cells
T2 sequence (P15538 25-503): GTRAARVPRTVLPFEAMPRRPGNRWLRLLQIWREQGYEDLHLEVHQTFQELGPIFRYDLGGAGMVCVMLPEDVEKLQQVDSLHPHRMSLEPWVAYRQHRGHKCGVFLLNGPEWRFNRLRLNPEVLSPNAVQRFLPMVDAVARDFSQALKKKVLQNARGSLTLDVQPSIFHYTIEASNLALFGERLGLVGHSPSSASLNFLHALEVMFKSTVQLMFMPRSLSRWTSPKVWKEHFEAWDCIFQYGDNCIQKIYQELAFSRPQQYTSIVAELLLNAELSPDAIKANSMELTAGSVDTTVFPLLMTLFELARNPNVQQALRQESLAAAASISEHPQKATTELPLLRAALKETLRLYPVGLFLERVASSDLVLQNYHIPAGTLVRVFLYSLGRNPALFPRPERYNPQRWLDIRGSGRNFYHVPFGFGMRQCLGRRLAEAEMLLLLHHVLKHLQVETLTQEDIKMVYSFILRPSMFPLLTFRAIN
Procedure: Methods for V79-Human-CYP11B2 and V79-Human-CYP11B1 Assays: V79 cell lines stably expressing the either the human CYP11B2 or the human CYP11B1 enzyme were generated using a standard transfection protocol. V79 cells were transfected with plasmids pTriEx3-Hygro-hCyp11B2 or pTriEx3-Hygro-hCyp11B1 using Lipofectamine2000 reagent. […] Single cell clones were generated by infinite dilution in DMEM supplemented with 10% FBS and 400 μg/mL hygromycin until single colonies were obtained. […] For testing of inhibitors, cells were harvested at 80% confluency with 0.5% Trypsan-EDTA, washed once in PBS, and reconstituted in DMEM+0.1% BSA media at a cell concentration of 400,000 cells/mL. 25 μl of cells were added to a 384 well tissue culture treated plate and mixed with 0.25 μl of inhibitor or DMSO (1% final DMSO concentration) for 1 hour at 37° C., 5% CO2. […] The reaction was carried out for 3 hours at 37° C., 5% CO2 and was stopped by harvesting the supernatants. […] IC50's for the inhibitor were determined by plotting the amount of product formed against the concentration of inhibitor using sigmoidal dose-response curve (variable slope) fit in GraphPad.

| IC50 (human CYP11B2) [nM] | IC50 (human CYP11B1) [nM] | Structure (SMILES) |
| --- | --- | --- |
| 17 | 157 | COC(=O)C1(c2cncc(-c3ccc4c(c3)CCc3nncn3-4)c2)CC1 [Step D, p 76, methyl 1-[5-(4,5-dihydro[1,2,4]triazolo[4,3-a]quinolin-7-yl)-3-pyridinyl]cyclopropanecarboxylate] |
|  | 69 | Cc1c(-c2cc(Cl)c3c(c2)CCc2nnc(C)n2-3)cncc1C(C)(O)C(F)(F)F (centres unmarked) [Example 37, 1-(5-(9-chloro-1-methyl-4,5-dihydro-[1,2,4]triazolo[4,3-a]quinolin-7-yl)-4-methylpyridin-3-yl)-1,1,1-trifluoropropan-2-ol] |
|  | 527 | Cc1c(-c2cc(Cl)c3c(c2)CCc2nnc(C)n2-3)cncc1C(C)(O)C(F)(F)F (centres unmarked) [Example 38, 1-(5-(9-chloro-1-methyl-4,5-dihydro-[1,2,4]triazolo[4,3-a]quinolin-7-yl)-4-methylpyridin-3-yl)-1,1,1-trifluoropropan-2-ol] |
|  | 1500 | Cc1c(F)cncc1-c1cc(F)c2c(c1)CCc1nncn1-2 [Example 17, 9-fluoro-7-(5-fluoro-4-methylpyridin-3-yl)-4,5-dihydro-[1,2,4]triazolo[4,3a] quinoline] |

— patent US9073929B2, “Aldosterone synthase inhibitors” (ElexoPharm GmbH, priority 2011, dated 2015)
